Results on one compound are retold here after US20050031652A1, “Compositions and methods comprising memantine and polyanionic polymers” (priority 2003, published 2005).

Counter-ions that a name gives are not always drawn.

One series is described as follows: in vivo. The settings on record: rabbit, po, 2 mg/kg. How it is done: Tissue concentrations of memantine were determined after oral and topical dosing. Rabbits were dosed topically with 35 μl of a 0.1% (w/v) aqueous solution of radiolabeled memantine twice a day to both eyes for 7 days (equivalent to approximately 0.07 mg/kg/day). This composition is detailed in Table 1 as Composition 2. Another subset of rabbits was dosed orally with 2 mg/kg radiolabeled memantine for seven days. At the end of the dosing period ocular tissue concentrations were quantified.

Series [1] is described as follows: Human oral clinical pharmacokinetic study. The class given is in vivo. The procedure: Assuming a 31% protein binding and a retina-choroid concentration equivalent to the free-unbound plasma memantine concentration, the peak retinal level of memantine would be 0.30 μM.
The next series relates to Rabbits. As to the kind of experiment: Five day toxicology study, topical dosing twice a day. It is filed as in vivo, rabbit. The settings on record: CMC based versus borate buffered formulations. The procedure: This study was followed up by a five day toxicology study which included borate buffered formulations ranging from 0.1 to 0.75% (w/v) memantine, CMC based formulations ranging from 0.1 to 1.0% (w/v) memantine and the relevant placebos. All formulations were preserved with 20 ppm BAK.
The formulations were dosed with 35 μL drops topically to the cul-de-sac of rabbits twice a day for […]. The rabbits were evaluated by gross clinical observation of irritation, ranked as none, slight, mild, moderate or severe. The irritation score was a sum of lacrimation, chemosis, hyperemia and tolerability all scored from none to severe.

Series [2] can be described thus: Autoradiography after topical ophthalmic instillation. It is filed as in vivo, rabbit. The procedure: General disposition of topical ophthalmic 1-amino-3,5-dimethyladamantane hydrochloride (memantine) instillation was assessed by autoradiography. Briefly, albino and pigmented rabbits were dosed via topical ophthalmic instillation with a 0.74% (w/v) aqueous isotonic memantine solution having a pH of 7.4. After dosing, autoradiographic sections of the eye were acquired at 0.25, 0.5, 1, and 2 and 24 hours post dosing.

For series [3] the following is noted: assumed for the calculation; cited from earlier work.
Series [4] in a line: Retina levels after topical versus oral dosing over seven days (Example 9). The note with it: albino, rabbit, in vivo, 1.76 mg/kg/day. How it is done: Once a day topical dosing of 0.37% memantine HCl (w/v) borate buffered solution (0.242 mg/kg/day), was compared to daily oral dosing of memantine HCL, 1.76 mg/kg/day, in albino rabbits over seven days. […] Peak levels obtained by topical dosing far exceeded levels thought to be possible by oral dosing. […] Thus, topical dosing of this formulation is […].

The conditions of series [5]: cited from earlier work.

In the case of `CC12CC3CC(C)(C1)CC(N)(C3)C2` [memantine, 1-amino-3,5-dimethyladamantane hydrochloride], the concentration at 7 days in the series “in vivo” was determined as 107 ng/mL; in series [4], 100 ng/mL. In addition, the “peak retinal level (calculated)” value in series [1] (oral 20 mg per day, assuming 31% protein binding and retina-choroid equal to free plasma concentration) is 0.30 µM. In series [1] (oral dose of 20 mg per day), this compound returned a mean plasma concentration of 95 ng/mL. In the series with Rabbits, the “improvement of tolerability, factor” value was 5-8. In series [2] (albino and pigmented rabbits, topical 0.74% (w/v) solution), the “half-life in the posterior globe (qualitative)” value is given as “relatively long”. Also, the “binding to ocular melanin” value in series [2] (pigmented tissues, autoradiography intensity) is listed as “binds to the ocular melanin”. In addition, the “presence in posterior ocular tissues” value in series [2] (topical 0.74% (w/v) aqueous isotonic solution pH 7.4, albino and pigmented rabbits) was “present in the posterior sclera, choroid and/or retina”. Also, the protein binding in series [3] is listed as 31%. Moreover, the “dose limiting side effects” value in series [5] (oral delivery) is “dizziness, lightheadedness and slurred speech”. For the same compound, in series [5] (oral dosages of 5 to 30 mg/day), the “other adverse events associated with CNS excitation” value was “anxiety, dissociation, dry mouth, headache, nervousness, slurred speech, tiredness and weakness”.
